Results reported in BindingDB's records for doi:10.1016/j.bmcl.2008.12.074 (Boehringer Ingelheim (Canada), 2009).
pEC50, pIC50: −log10 of the molar value.

Legend:
[1] = molecular target: T1, Gag-Pol polyprotein [588-1027] (Human immunodeficiency virus type 1 group M subtype B (isolate HXB2), UniProt P04585); assay: Reverse Transcriptase Assay; details: pH 7.4; 37 °C
T1 construct: 588-1027

[2] = molecular target: T2, Gag-Pol polyprotein [588-1027,K691N,Y769C]/[588-1147,K691N,Y769C] (Human immunodeficiency virus 1, UniProt P04585, K691N/Y769C); assay: Reverse Transcriptase Assay
T2 construct: 588-1027; 588-1147

| Structure (SMILES) | pIC50 [1] | pIC50 [2] | pEC50 [1] |
| --- | --- | --- | --- |
| CC(C)(C)c1ccc(-c2c[nH]nc2OCC(=O)Nc2ccc(-c3ccc(CC(=O)O)cc3)cc2Cl)c(Cl)c1 [2-{4-[4-(2-{[4-(4-tert-butyl-2-chlorophenyl)-1H-pyrazol-3-yl]oxy}acetamido)-3-chlorophenyl]phenyl}acetic acid] | < 5.48 |  |  |
| Cc1ccc(-n2cc(C)nc2SCC(=O)Nc2ccccc2Cl)c(Cl)c1 [2-{[1-(2-chloro-4-methylphenyl)-4-methyl-1H-imidazol-2-yl]sulfanyl}-N-(2-chlorophenyl)acetamide] | < 6.00 | < 5.00 |  |
| Cc1ccc(-c2c(SCC(=O)Nc3ccc(-c4ccc(OCC(=O)O)cc4)cc3Cl)ccn2C)c(Cl)c1 [2-{4-[3-chloro-4-(2-{[2-(2-chloro-4-methylphenyl)-1-methyl-1H-pyrrol-3-yl]sulfanyl}acetamido)phenyl]phenoxy}acetic acid] | < 6.00 |  |  |
| Cc1ccc(-n2ncc(C)c2SCC(=O)Nc2ccc(-c3ccc(CC(=O)O)cc3)cc2Cl)c(Cl)c1 [2-{4-[3-chloro-4-(2-{[1-(2-chloro-4-methylphenyl)-4-methyl-1H-pyrazol-5-yl]sulfanyl}acetamido)phenyl]phenyl}acetic acid] | < 5.00 | < 5.00 |  |
| Cc1ccc(-n2nnnc2SCC(=O)Nc2ccc(-c3ccc(CC(=O)O)cc3)cc2Cl)c(Cl)c1 [2-{4-[3-chloro-4-(2-{[1-(2-chloro-4-methylphenyl)-1H-1,2,3,4-tetrazol-5-yl]sulfanyl}acetamido)phenyl]phenyl}acetic acid] | 8.62 | 7.32 |  |
| Cc1[nH]nc(OCC(=O)Nc2ccc(C#CC(C)(C)CO)cc2Cl)c1-c1ccc(C(C)(C)C)cc1Cl [2-{[4-(4-tert-butyl-2-chlorophenyl)-5-methyl-1H-pyrazol-3-yl]oxy}-N-[2-chloro-4-(4-hydroxy-3,3-dimethylbut-1-yn-1-yl)phenyl]acetamide] | < 5.48 |  | < 5.30 |
